Structures can show the parent of a compound that is named as a salt.
Experiments:
[1] = tested on: patients undergoing elective arthroscopic shoulder surgery; assay: Example 13 trial: pain intensity and opioid rescue after arthroscopic shoulder surgery; format: in vivo, human
Method: Patients were screened 1 to 14 days before surgery at which time informed consent was obtained. Surgery was performed and the trial drug administered on Day 0. The trial was planned to be divided into two sequential cohorts, each with three treatment groups (a, b and c).
All patients received paracetamol (4 grams/day; 2 grams/day for body weight <66 kg for the first 72 hours) as background treatment. In case sufficient pain relief was not obtained, patients were allowed rescue medication in the form of morphine administered intravenously or orally, which consisted of oral morphine 10 mg at 1-hour intervals or, if unable to tolerate orally intake, intravenous (IV) morphine […] at 5-minute intervals. After 72 hours, subjects were allowed paracetamol and oral morphine on an as-needed basis. Patients recorded pain intensity as well as rescue medication in an electronic diary (eDiary).
Primary: The study had two primary endpoints. […] For the primary endpoints to be met, […] of PI on movement compared to placebo as well as superiority in total use of opioid analgesia needed to be shown. PI “on movement” reported on the NRS scale was summarized by treatment group and time, using descriptive statistics for continuous variables.
Time to first opioid rescue medication usage was defined as the duration between time of trial drug administration and the time of first opioid use

[2] = Example 13 trial: total and free bupivacaine plasma pharmacokinetics; conditions: human, in vivo
Method: Additionally, alpha 1 acid glycoprotein (AAG) plasma concentrations were measured in these two groups for correlation with free bupivacaine concentrations.
Using non-compartmental methods the following PK parameters were calculated from the plasma concentrations of each compound: area under the plasma concentration vs. time curve until the last measured concentration (AUCt), area under the plasma concentration vs. time curve extrapolated until infinity (AUCinf), the maximum concentration (Cmax), the time of its occurrence (tmax) and the apparent terminal elimination half-life (t1/2). […] The average […] of bupivacaine was approximately […]; free bupivacaine plasma concentrations generally paralleled those of total bupivacaine. There was a large interindividual variability of Cmax of both total and free bupivacaine. […] Note: Table 13.5 presents Geometric mean, ±68th percentile for Cmax rather than absolute min, max.

[3] = tested on: patients undergoing elective arthroscopic shoulder surgery; assay: Example 13 trial: safety; format: in vivo, human; conditions: safety population
Text: Pharmacokinetic/pharmacodynamic (PK/PD) relationships were to be assessed as part of central nervous system (CNS) toxicity monitoring and cardiac monitoring. For patients not selected for PK-profiling, if a cardiac or CNS event occurred that met the criteria for a serious adverse event (SAE) or a severe non-SAE, a blood sample for PK analysis was to be taken as close to the event as possible.
The incidence of adverse events (AEs); the incidence of bupivacaine-related CNS side effects; clinical laboratory tests; vital signs; 12-lead ECGs; and physical examinations.
Evaluation by the investigator of wound healing and tissue conditions at the surgical wound on Days 7 and 14, and at the 6-month follow-up visit. An MRI of the shoulder as well as a functionality assessment of the shoulder using the Constant-Murley score were to be performed at the 6-month follow-up visit.

[4] = tested on: subjects undergoing elective outpatient laparoscopic cholecystectomy; assay: Example 16 trial: safety; format: in vivo
Text: The trial included: 1) a randomized, parallel-group, double-blind, placebo-controlled study (Part 1) and a randomized, parallel-group, double-blind, bupivacaine HCl active-controlled study (Part 2). The trial evaluated the efficacy and safety of Formulation A (bupivacaine, benzyl alcohol, sucrose acetate isobutyrate) as a delivery system in subjects undergoing elective outpatient laparoscopic cholecystectomy.
There were no fatalities in this trial. […]

[5] = tested on: patients undergoing laparotomy, laparoscopic cholecystectomy or laparoscopically-assisted colectomy; assay: Example 17 phase 3 trial: pain intensity and opioid use in general surgical procedures; format: in vivo, human; conditions: for Total Morphine-equivalent Opioid Medication Use, MEDD 0-72 hours, Median (Q1, Q3) / Repeated Measures Pain Intensity on Movement, All Timepoints 0-72 hr, LS Mean (SE): ITT; for Pain Intensity on Movement AUC 0-24 hours, LS Mean (SE) / Pain Intensity on Movement AUC 0-48 hours, LS Mean (SE) / Pain Intensity on Movement AUC 0-72 hours, LS Mean (SE) / Pain Intensity on Movement AUC 24-48 hours, LS Mean (SE) / Pain Intensity on Movement AUC 48-72 hours, LS Mean (SE): Log Pad and Opioid Pain Scores; for Repeated Measures Pain Intensity on Movement, All Timepoints 0-72 hr, LS Mean (SE): LogPad Scores Only
[6] = LOCF, ITT population, hours post-surgery
[7] = Cohort 2 (Laparoscopic Cholecystectomy)

CCCCN1CCCCC1C(=O)Nc1c(C)cccc1C (centres unmarked) [bupivacaine HCl, bupivacaine hydrochloride]
Total IV morphine equivalent dose of opioid rescue medication, Median ([1]; 0-72 hours after surgery, ITT population): 8.0 mg
median cumulative IV morphine-equivalent dose of opioids 0 to 72 hours ([1]; Formulation A 5 mL (660 mg) or bupivacaine HCl 20 mL (50 mg) subacromial, ITT): 8.0 mg
Pain intensity at rest normalized AUC 1-72 hours, Mean (SD) ([1]; ITT population): 2.33 (1.76)
Time to first use of opioid rescue medication, Median (95% CI) ([1]; ITT population, Kaplan-Meier estimates): 1.4 (1.0, 4.1) hours
Pain intensity on movement, mean AUC (1-24) [1, 6]: 5.82
Pain intensity on movement, mean AUC (1-48) [1, 6]: 5.56
Pain intensity on movement, mean AUC (1-72) [1, 6]: 5.16
Pain intensity on movement, mean AUC (24-48) [1, 6]: 5.31
Pain intensity on movement, mean AUC (48-72) [1, 6]: 4.38
median time to first use of opioid rescue medication ([1]; single subacromial dose, ITT): 1.4 h
percentage of subjects opioid free during 72 hours after surgery ([1]; single subacromial dose, ITT): 27.6%
Tmax [2]: 1.03 h
t1/2, mean [2]: 6.65 h
tmax median [2]: 1.03 h
half-life ([2]; t1/2, mean): 5.93 h
All TEAEs, % of patients [3]: 37.9%
All TEAEs, n (patients with at least one event) [3]: 11
TEAE Alanine aminotransferase increased, % of patients [3]: 0.0%
TEAE Cardiac disorders, % of patients [3]: 10.3%
TEAE Gastrointestinal disorders, % of patients [3]: 3.4%
TEAE General disorders and administration site conditions, % of patients [3]: 0.0%
TEAE Headache, % of patients [3]: 3.4%
TEAE Injury, poisoning and procedural complications, % of patients [3]: 0.0%
TEAE Investigations, % of patients [3]: 6.9%
TEAE Musculoskeletal and connective tissue disorders, % of patients [3]: 6.9%
TEAE Musculoskeletal pain, % of patients [3]: 6.9%
TEAE Nausea, % of patients [3]: 3.4%
TEAE Nervous system disorders, % of patients [3]: 13.8%
TEAE Respiratory, thoracic and mediastinal disorders, % of patients [3]: 6.9%
TEAE Skin and subcutaneous tissue disorders, % of patients [3]: 6.9%
Fatal TEAE, number of subjects ([4]; Part 2 (N = 148 per group)): 0
Fatal TEAE, percent of subjects ([4]; Part 2 (N = 148 per group)): (0.0%)
At Least One LogPad-Solicited TEAE, number of subjects ([4]; human, in vivo): 132
At Least One LogPad-Solicited TEAE, percent of subjects ([4]; human, in vivo): (89.2%)
At Least One Serious TEAE, number of subjects ([4]; human, in vivo): 3
At Least One Serious TEAE, percent of subjects ([4]; human, in vivo): (2.0%)
At Least One Serious and Related TEAE, number of subjects ([4]; human, in vivo): 0
At Least One Serious and Related TEAE, percent of subjects ([4]; human, in vivo): (0.0%)
At Least One Severe and Related TEAE, number of subjects ([4]; human, in vivo): 0
At Least One Severe and Related TEAE, percent of subjects ([4]; human, in vivo): (0.0%)
At Least One Spontaneously-reported TEAE, number of subjects ([4]; human, in vivo): 138
At Least One Spontaneously-reported TEAE, percent of subjects ([4]; human, in vivo): (93.2%)
At Least One TEAE Leading to Study Discontinuation, number of subjects ([4]; human, in vivo): 1
At Least One TEAE Leading to Study Discontinuation, percent of subjects ([4]; human, in vivo): (0.7%)
At Least One TEAE, number of subjects ([4]; human, in vivo): 146
At Least One TEAE, percent of subjects ([4]; human, in vivo): (98.6%)
TEAE Maximum Relationship to Study Drug: Not Related, number of subjects ([4]; human, in vivo): 42
TEAE Maximum Relationship to Study Drug: Not Related, percent of subjects ([4]; human, in vivo): (28.4%)
TEAE Maximum Relationship to Study Drug: Related, number of subjects ([4]; human, in vivo): 104
TEAE Maximum Relationship to Study Drug: Related, percent of subjects ([4]; human, in vivo): (70.3%)
TEAE Maximum Severity: Mild, number of subjects ([4]; human, in vivo): 92
TEAE Maximum Severity: Mild, percent of subjects ([4]; human, in vivo): (62.2%)
TEAE Maximum Severity: Moderate, number of subjects ([4]; human, in vivo): 49
TEAE Maximum Severity: Moderate, percent of subjects ([4]; human, in vivo): (33.1%)
TEAE Maximum Severity: Severe, number of subjects ([4]; human, in vivo): 5
TEAE Maximum Severity: Severe, percent of subjects ([4]; human, in vivo): (3.4%)
treated subjects with treatment-emergent serious adverse events ([4]; human, in vivo): 3 subjects
Total Morphine-equivalent Opioid Medication Use, MEDD 0-72 hours, Median (Q1, Q3) ([5]; Cohort 1 (Laparotomy)): 63.0 (34.0, 152.0) mg
Pain Intensity on Movement AUC 0-24 hours, LS Mean (SE) ([5]; Cohort 1 (Laparotomy)): 6.3 (0.48)
Pain Intensity on Movement AUC 0-48 hours, LS Mean (SE) ([5]; Cohort 1 (Laparotomy)): 6.0 (0.49)
Pain Intensity on Movement AUC 0-72 hours, LS Mean (SE) ([5]; Cohort 1 (Laparotomy)): 5.8 (0.51)
Pain Intensity on Movement AUC 24-48 hours, LS Mean (SE) ([5]; Cohort 1 (Laparotomy)): 5.7 (0.56)
Pain Intensity on Movement AUC 48-72 hours, LS Mean (SE) ([5]; Cohort 1 (Laparotomy)): 5.3 (0.60)
Repeated Measures Pain Intensity on Movement, All Timepoints 0-72 hr, LS Mean (SE) ([5]; Cohort 1 (Laparotomy)): 5.9 (0.35)
Total Morphine-equivalent Opioid Medication Use, MEDD 0-72 hours, Median (Q1, Q3) [5, 7]: 22.5 (12.5, 34.5) mg
Pain Intensity on Movement AUC 0-24 hours, LS Mean (SE) [5, 7]: 4.8 (0.47)
Pain Intensity on Movement AUC 0-48 hours, LS Mean (SE) [5, 7]: 4.4 (0.45)
Pain Intensity on Movement AUC 0-72 hours, LS Mean (SE) [5, 7]: 3.9 (0.45)
Pain Intensity on Movement AUC 24-48 hours, LS Mean (SE) [5, 7]: 4.0 (0.22)
Pain Intensity on Movement AUC 48-72 hours, LS Mean (SE) [5, 7]: 2.8 (0.52)
Repeated Measures Pain Intensity on Movement, All Timepoints 0-72 hr, LS Mean (SE) [5, 7]: 3.6 (0.32)
